Data taken from patent publication US10596172B2 (Celgene CAR LLC, priority 2008, dated 2020).
Like-named read-outs stand apart in the source and are kept apart here.

Columns and labels:
JAK3 = JAK3 (Homo sapiens (Human), UniProt P52333); test: Omnia assay for potency assessment against the active form of JAK3; assay type: biochemical; settings: read-out: JAK3 Inhibition
[1] = test system: B cell lymphoma cell lines; test: B cell lymphoma proliferation assay; assay type: cell-based
BTK [2] = molecular target: BTK (Rattus norvegicus, UniProt Q5S255); test: BTK occupancy from in vivo samples by ELISA; settings: po, rats dosed orally 30 mg/kg
Chain of BTK (Rattus norvegicus, UniProt Q5S255) (Q5S255 1-660): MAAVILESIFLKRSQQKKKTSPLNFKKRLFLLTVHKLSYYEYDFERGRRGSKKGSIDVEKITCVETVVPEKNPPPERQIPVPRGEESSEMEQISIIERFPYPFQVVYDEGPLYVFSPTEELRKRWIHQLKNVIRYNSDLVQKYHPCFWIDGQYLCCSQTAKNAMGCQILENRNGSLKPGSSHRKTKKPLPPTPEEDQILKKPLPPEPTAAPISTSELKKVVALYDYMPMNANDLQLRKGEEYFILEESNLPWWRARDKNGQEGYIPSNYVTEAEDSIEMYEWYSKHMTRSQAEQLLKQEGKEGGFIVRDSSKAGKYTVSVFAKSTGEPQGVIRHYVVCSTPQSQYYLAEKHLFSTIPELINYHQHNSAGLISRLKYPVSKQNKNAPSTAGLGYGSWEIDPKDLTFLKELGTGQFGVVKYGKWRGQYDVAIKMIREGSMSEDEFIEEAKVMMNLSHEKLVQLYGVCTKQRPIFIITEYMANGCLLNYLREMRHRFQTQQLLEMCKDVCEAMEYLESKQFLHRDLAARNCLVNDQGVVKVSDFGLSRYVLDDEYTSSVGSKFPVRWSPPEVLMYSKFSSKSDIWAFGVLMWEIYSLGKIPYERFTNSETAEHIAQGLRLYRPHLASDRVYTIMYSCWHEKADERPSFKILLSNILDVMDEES
Description: All samples were prepared with equal concentrations of Biorad lysis buffer (Hercules, Calif., USA), 0.5% bovine serum albumin in PBS with 0.05% Tween-20 to give a final concentration of 1 μM I-215. Samples were incubated in a mixing plate for 1 hr at room temperature while shaking to allow probe compound I-215 to bind to free BTK. After incubation with I-215, samples were added to a washed, streptavidin-coated ELISA plate (Pierce, Rockford, Ill., USA) and incubated for 1 hr at room temperature while shaking. The plate was then washed with PBS containing 0.05% Tween-20 using an automatic plate washer. Anti-BTK antibody was prepared at 1:1000 dilution in 0.5% BSA in PBS (0.05% Tween-20) and added to the ELISA plate. The plate was incubated for 1 hr at room temperature while shaking. The plate was washed as described above and the secondary HRP antibody was prepared at 1:5000 dilution in 0.5% BSA in PBS (0.05% Tween-20). The plate was incubated and washed as described above. TMB was added to the plate, and OD650 was monitored until reaching 1 OD unit. The reaction was then stopped with addition of H2SO4. The plate was analyzed using Gen 5 software, and a 4 Parameter Logistic curve was employed to quantitate samples. Recombinant BTK (Invitrogen, Carlsbad, Calif., USA) was used for the standard curve.
Rats were dosed orally with 30 mg/kg of compound and spleens were harvested either 2 or 24 hours after compound treatment. Rat spleens were disrupted between two microscope slides coated with frosted glass to recover single cell suspensions. Red blood cells were lysed by incubating with RBC lysis buffer (Boston BioProducts) for 2 minutes at room temperature, the cells were then resuspended in RPMI complete media and pelleted by centrifugation. Rat B cells were isolated by positive selection with B220+ antibody-magnetic bead conjugates, purified by MACS column and lysed in Bio-Rad lysis buffer at a concentration of 10 million cells/100 μl. Lysates were analyzed employing the biotinylated probe compound I-215 in an ELISA protocol as described in detail in Example 278.

BTK [3] = molecular target: BTK (Homo sapiens (Human), UniProt Q06187); test: Washout experiment with Ramos cells; assay type: cell-based; settings: 100 nM compound 1 hour, then washout
Chain of BTK (Homo sapiens (Human), UniProt Q06187) (Q06187 whole entry): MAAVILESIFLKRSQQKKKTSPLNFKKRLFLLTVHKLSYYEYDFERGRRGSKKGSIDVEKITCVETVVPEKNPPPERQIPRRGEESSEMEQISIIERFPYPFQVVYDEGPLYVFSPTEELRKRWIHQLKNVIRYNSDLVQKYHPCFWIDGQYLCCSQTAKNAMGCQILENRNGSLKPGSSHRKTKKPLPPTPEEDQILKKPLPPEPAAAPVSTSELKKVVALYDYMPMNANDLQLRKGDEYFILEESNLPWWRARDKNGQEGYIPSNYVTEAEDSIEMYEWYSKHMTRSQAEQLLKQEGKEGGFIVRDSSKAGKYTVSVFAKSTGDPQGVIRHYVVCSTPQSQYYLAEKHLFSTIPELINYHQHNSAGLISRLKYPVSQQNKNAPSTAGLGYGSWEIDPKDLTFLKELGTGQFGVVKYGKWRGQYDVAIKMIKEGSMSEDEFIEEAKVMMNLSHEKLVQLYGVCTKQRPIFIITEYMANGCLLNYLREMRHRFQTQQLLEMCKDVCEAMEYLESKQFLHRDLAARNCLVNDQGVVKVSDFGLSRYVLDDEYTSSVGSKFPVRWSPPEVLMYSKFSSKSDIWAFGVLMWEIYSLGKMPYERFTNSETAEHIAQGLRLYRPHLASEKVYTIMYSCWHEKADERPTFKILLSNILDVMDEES
Summary of the method: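 Serum-starved Ramos cells (1 h, 37° C) exposed to 100 nM compound for 1 hour, then washed into compound-free media every 2 hours. At set timepoints cells were stimulated with 1 ug anti-human IgM for 10 minutes on ice. BTK activity was read as PLCγ2 phosphorylation by phospho-specific western blot.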

[4] = DHL4 B cell lymphoma cell line, read-out: EC50 (μM) DHL4
[5] = Homo sapiens, DOHH-2, DOHH2 B cell lymphoma cell line, read-out: EC50 (μM) DOHH2
[6] = Homo sapiens, WSUDLCL2, WSU-DLCL2 B cell lymphoma cell line, read-out: EC50 (μM) WSU-DLCL2
[7] = spleen B cells harvested 2 hours after treatment, read-out: % BTK Occupancy 2 h
[8] = spleen B cells harvested 24 hours after treatment, read-out: % BTK Occupancy 24 h

Chain of JAK3 (P52333 whole entry): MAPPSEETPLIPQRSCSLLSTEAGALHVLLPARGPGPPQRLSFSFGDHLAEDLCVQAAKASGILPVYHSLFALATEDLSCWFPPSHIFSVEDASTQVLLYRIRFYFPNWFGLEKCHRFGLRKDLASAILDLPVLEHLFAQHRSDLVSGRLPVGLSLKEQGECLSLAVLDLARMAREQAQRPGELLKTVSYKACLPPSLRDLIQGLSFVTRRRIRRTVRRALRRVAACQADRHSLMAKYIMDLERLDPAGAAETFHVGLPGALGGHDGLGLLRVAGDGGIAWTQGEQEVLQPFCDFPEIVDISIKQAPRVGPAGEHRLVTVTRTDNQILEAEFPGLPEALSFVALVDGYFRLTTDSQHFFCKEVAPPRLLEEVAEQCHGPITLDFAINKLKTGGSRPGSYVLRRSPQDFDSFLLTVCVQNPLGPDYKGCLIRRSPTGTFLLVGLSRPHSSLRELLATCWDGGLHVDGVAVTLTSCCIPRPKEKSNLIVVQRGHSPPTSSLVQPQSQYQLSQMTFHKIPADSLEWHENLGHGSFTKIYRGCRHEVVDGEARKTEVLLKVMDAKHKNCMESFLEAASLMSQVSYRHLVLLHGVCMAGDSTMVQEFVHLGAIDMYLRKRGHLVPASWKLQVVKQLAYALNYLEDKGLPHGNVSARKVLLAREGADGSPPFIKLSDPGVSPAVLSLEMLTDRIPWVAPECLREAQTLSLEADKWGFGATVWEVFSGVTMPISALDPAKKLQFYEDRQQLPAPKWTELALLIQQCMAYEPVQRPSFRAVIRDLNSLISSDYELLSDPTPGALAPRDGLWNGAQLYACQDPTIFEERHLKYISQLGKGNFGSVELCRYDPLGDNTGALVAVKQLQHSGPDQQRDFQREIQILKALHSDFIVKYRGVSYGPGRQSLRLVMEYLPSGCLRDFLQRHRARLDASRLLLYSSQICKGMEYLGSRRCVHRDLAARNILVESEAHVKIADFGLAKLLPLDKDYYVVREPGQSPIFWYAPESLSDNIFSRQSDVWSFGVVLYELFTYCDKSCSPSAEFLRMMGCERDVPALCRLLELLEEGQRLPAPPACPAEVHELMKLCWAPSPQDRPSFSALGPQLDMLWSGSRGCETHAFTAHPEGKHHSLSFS

Row | IC50 (JAK3) [nM] | EC50 [1, 4] [µM] | EC50 [1, 5] [µM] | EC50 [1, 6] [µM] | receptor occupancy at 30 mg/kg (BTK [2]; [7]) [%] | receptor occupancy at 30 mg/kg (BTK [2]; [8]) [%] | BTK Inhibition Type (BTK [3]) | SMILES
1 | < 10 | 1 to 10 | 1 to 10 | 1 to 10 | 98 | 78 | irreversible | C=CC(=O)Nc1cccc(Nc2nc(Nc3ccccc3)ncc2C)c1 [Compound I-7, N-(3-(5-methyl-2-(phenylamino)pyrimidin-4-ylamino)phenyl)acrylamide]
2 | < 10 | 0.1 to 1 | 0.1 to 1 | 0.1 to 1 | 87 | 68 | irreversible | Cc1cccc(Nc2nc(Nc3cccc(NC(=O)/C=C/CN(C)C)c3)ncc2F)c1 [Compound I-4, (E)-4-(dimethylamino)-N-(3-(5-fluoro-4-(m-tolylamino)pyrimidin-2-ylamino)phenyl)but-2-enamide]
